Reference: ChEMBL document CHEMBL4507259 (2021)

Assays:
[1] = molecular target: Interleukin-1 receptor-associated kinase 1 (Homo sapiens) (UniProt P51617); details: Compound concentration 1000.0 nM
[2] = molecular target: Mitotic checkpoint serine/threonine-protein kinase BUB1 (Homo sapiens) (UniProt O43683); details: Compound concentration 1000.0 nM
[3] = molecular target: Testis-specific serine/threonine-protein kinase 1 (Homo sapiens) (UniProt Q9BXA7); details: Compound concentration 1000.0 nM
[4] = molecular target: STE20/SPS1-related proline-alanine-rich protein kinase (Homo sapiens) (UniProt Q9UEW8); details: Compound concentration 1000.0 nM
[5] = molecular target: Rhodopsin kinase GRK1 (Homo sapiens) (UniProt Q15835); details: Compound concentration 1000.0 nM
[6] = molecular target: Serine/threonine-protein kinase TAO1 (Homo sapiens) (UniProt Q7L7X3); details: Compound concentration 1000.0 nM
[7] = molecular target: Ribosomal protein S6 kinase alpha-5 (Homo sapiens) (UniProt O75582); details: Compound concentration 1000.0 nM
[8] = molecular target: Serine/threonine-protein kinase LATS1 (Homo sapiens) (UniProt O95835); details: Compound concentration 1000.0 nM
[9] = molecular target: Serine/threonine-protein kinase WNK4 (Homo sapiens) (UniProt Q96J92); details: Compound concentration 1000.0 nM
[10] = molecular target: Casein kinase II subunit alpha (Homo sapiens) (UniProt P68400); details: Compound concentration 1000.0 nM
Chain of Casein kinase II subunit alpha (Homo sapiens) (P68400 whole entry, looked up): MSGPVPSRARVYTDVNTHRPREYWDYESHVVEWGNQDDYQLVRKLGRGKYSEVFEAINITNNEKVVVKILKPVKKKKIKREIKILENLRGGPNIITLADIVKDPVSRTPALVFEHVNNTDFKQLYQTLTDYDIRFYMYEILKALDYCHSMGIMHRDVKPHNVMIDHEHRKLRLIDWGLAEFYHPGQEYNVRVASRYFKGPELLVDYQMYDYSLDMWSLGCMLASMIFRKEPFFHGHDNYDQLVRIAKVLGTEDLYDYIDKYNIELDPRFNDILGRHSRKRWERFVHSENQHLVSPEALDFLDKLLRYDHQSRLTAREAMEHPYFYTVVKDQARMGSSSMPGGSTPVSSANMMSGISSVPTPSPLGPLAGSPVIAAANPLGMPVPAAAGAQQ

[11] = molecular target: Mitogen-activated protein kinase 14 (Homo sapiens) (UniProt Q16539); details: Compound concentration 1000.0 nM
[12] = tested on: Tyrosine-protein kinase ABL1 (Homo sapiens), P00519 [T315I]; details: Compound concentration 1000.0 nM
[13] = molecular target: Serine/threonine-protein kinase Nek4 (Homo sapiens) (UniProt P51957); details: Compound concentration 1000.0 nM
[14] = molecular target: Serine/threonine-protein kinase WNK1 (Homo sapiens) (UniProt Q9H4A3); details: Compound concentration 1000.0 nM
[15] = tested on: Epidermal growth factor receptor (Homo sapiens), P00533 [UNDEFINED MUTATION]; details: Compound concentration 1000.0 nM
[16] = molecular target: T1, 5-hydroxytryptamine receptor 2C (Homo sapiens) (UniProt P28335); experiment: 5-HT2C (h) CEREP ligand profiling; details: filed as antagonist, Compound concentration 10.0 uM
T1 sequence (whole entry): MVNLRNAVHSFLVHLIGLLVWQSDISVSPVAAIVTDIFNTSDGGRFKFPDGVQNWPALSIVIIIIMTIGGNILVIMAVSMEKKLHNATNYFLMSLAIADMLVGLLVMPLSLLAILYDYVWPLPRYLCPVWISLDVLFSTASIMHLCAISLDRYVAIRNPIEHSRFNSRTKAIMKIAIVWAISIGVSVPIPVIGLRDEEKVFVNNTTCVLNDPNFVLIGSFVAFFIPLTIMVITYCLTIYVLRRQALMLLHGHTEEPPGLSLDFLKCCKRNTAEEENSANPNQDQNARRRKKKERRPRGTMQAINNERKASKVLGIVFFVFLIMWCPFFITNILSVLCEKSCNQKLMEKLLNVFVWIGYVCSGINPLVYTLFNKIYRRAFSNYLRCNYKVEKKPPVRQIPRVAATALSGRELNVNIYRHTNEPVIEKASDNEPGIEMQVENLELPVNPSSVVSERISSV

[17] = molecular target: High affinity nerve growth factor receptor (Homo sapiens) (UniProt P04629); details: Compound concentration 1000.0 nM
[18] = molecular target: Cyclin-dependent kinase 4 (Homo sapiens) (UniProt P11802); details: Compound concentration 1000.0 nM
[19] = molecular target: Serine/threonine-protein kinase D3 (Homo sapiens) (UniProt O94806); details: Compound concentration 1000.0 nM
Chain of Serine/threonine-protein kinase D3 (Homo sapiens) (O94806 whole entry): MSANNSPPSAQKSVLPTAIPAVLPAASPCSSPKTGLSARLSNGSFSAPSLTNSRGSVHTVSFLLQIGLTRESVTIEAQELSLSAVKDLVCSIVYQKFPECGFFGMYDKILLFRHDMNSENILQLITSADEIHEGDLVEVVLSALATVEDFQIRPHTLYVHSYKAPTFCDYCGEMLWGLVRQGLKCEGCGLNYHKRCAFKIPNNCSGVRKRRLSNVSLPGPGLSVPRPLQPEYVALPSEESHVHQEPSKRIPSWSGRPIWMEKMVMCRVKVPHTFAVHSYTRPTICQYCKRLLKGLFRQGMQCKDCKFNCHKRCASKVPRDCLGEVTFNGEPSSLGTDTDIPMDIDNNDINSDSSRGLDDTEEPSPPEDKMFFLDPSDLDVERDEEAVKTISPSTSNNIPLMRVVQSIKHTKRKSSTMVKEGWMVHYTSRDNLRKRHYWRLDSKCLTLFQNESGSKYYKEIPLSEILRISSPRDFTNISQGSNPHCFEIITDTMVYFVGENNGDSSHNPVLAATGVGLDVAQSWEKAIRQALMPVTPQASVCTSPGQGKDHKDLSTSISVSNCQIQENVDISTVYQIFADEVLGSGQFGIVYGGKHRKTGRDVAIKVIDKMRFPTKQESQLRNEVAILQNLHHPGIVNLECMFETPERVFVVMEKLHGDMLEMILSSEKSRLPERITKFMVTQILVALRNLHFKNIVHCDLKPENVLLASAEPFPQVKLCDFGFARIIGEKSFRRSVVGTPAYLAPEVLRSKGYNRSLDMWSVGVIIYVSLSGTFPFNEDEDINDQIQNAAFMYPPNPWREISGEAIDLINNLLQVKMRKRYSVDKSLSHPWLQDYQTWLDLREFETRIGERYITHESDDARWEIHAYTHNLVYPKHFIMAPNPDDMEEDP

[20] = molecular target: Cannabinoid receptor 2 (Homo sapiens) (UniProt P34972); experiment: CB2 (h) CEREP ligand profiling; details: filed as agonist, Compound concentration 10.0 uM
Chain of Cannabinoid receptor 2 (Homo sapiens) (P34972 whole entry): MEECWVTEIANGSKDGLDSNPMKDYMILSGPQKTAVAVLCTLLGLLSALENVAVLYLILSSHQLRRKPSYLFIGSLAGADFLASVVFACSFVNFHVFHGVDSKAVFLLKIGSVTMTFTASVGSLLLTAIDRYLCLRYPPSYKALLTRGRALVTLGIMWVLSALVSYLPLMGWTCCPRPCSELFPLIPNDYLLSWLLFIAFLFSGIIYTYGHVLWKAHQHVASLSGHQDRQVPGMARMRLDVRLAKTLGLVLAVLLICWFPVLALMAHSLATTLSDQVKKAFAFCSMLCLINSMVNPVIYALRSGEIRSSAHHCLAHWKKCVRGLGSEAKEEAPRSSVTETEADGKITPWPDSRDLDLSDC

[21] = molecular target: RAC-alpha serine/threonine-protein kinase (Homo sapiens) (UniProt P31749); details: Compound concentration 1000.0 nM
[22] = molecular target: Glutamate [NMDA] receptor (Homo sapiens) (UniProt Q05586+Q12879+Q13224+O15399+O60391+Q14957+Q8TCU5); experiment: NMDA CEREP ligand profiling; assay type: protein-complex assay
[23] = molecular target: cAMP-dependent protein kinase catalytic subunit beta (Homo sapiens) (UniProt P22694); details: Compound concentration 1000.0 nM
[24] = molecular target: Rho-associated protein kinase 1 (Homo sapiens) (UniProt Q13464); details: Compound concentration 1000.0 nM
[25] = molecular target: D(2) dopamine receptor (Homo sapiens) (UniProt P14416); experiment: D2S (h) CEREP ligand profiling; details: filed as antagonist, Compound concentration 10.0 uM
[26] = molecular target: Macrophage-stimulating protein receptor (Homo sapiens) (UniProt Q04912); details: Compound concentration 1000.0 nM
Chain of Macrophage-stimulating protein receptor (Homo sapiens) (Q04912 25-304 limits assumed): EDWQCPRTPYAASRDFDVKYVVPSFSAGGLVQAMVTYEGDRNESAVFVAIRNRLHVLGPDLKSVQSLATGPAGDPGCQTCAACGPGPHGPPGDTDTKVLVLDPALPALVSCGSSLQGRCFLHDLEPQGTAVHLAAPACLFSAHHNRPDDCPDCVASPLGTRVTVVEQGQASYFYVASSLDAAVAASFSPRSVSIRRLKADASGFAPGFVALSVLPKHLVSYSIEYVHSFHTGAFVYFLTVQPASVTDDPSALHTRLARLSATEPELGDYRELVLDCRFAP
Chain of Macrophage-stimulating protein receptor (Homo sapiens) (Q04912 310-1400 limits assumed): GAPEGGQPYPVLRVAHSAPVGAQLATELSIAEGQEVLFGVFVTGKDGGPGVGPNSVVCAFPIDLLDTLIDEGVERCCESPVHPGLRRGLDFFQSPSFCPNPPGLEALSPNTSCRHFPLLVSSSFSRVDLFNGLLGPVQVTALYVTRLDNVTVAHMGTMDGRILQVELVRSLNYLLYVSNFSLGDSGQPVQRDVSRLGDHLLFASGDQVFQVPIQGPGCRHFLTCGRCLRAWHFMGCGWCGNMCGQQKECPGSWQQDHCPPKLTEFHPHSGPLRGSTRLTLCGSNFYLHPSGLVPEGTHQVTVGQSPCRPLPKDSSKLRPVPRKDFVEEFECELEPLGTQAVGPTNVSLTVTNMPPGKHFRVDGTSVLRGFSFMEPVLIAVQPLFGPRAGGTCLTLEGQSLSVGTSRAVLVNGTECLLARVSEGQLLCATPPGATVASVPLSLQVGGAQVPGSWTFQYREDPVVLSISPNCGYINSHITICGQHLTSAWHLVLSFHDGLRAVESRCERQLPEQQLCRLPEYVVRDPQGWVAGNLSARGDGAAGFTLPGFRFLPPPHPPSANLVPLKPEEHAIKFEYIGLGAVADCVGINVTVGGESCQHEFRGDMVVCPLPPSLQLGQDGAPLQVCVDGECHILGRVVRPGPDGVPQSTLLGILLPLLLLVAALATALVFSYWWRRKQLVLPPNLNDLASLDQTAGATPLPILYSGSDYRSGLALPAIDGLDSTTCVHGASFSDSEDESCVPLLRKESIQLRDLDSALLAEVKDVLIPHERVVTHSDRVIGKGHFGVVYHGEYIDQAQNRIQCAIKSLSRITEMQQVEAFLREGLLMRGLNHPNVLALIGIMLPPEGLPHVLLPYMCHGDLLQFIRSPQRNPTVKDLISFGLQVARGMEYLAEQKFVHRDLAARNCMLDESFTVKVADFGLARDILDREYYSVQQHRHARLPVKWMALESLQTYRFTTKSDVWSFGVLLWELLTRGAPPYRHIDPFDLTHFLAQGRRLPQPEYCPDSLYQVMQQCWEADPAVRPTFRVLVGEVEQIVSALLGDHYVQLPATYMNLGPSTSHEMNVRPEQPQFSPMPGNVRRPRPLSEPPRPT

[27] = molecular target: TGF-beta receptor type-1 (Homo sapiens) (UniProt P36897); details: Compound concentration 1000.0 nM
[28] = molecular target: Death-associated protein kinase 2 (Homo sapiens) (UniProt Q9UIK4); details: Compound concentration 1000.0 nM
[29] = molecular target: Cyclin-G-associated kinase (Homo sapiens) (UniProt O14976); details: Compound concentration 1000.0 nM
[30] = molecular target: Serine/threonine-protein kinase 10 (Homo sapiens) (UniProt O94804); details: Compound concentration 1000.0 nM
Chain of Serine/threonine-protein kinase 10 (Homo sapiens) (O94804 whole entry, looked up): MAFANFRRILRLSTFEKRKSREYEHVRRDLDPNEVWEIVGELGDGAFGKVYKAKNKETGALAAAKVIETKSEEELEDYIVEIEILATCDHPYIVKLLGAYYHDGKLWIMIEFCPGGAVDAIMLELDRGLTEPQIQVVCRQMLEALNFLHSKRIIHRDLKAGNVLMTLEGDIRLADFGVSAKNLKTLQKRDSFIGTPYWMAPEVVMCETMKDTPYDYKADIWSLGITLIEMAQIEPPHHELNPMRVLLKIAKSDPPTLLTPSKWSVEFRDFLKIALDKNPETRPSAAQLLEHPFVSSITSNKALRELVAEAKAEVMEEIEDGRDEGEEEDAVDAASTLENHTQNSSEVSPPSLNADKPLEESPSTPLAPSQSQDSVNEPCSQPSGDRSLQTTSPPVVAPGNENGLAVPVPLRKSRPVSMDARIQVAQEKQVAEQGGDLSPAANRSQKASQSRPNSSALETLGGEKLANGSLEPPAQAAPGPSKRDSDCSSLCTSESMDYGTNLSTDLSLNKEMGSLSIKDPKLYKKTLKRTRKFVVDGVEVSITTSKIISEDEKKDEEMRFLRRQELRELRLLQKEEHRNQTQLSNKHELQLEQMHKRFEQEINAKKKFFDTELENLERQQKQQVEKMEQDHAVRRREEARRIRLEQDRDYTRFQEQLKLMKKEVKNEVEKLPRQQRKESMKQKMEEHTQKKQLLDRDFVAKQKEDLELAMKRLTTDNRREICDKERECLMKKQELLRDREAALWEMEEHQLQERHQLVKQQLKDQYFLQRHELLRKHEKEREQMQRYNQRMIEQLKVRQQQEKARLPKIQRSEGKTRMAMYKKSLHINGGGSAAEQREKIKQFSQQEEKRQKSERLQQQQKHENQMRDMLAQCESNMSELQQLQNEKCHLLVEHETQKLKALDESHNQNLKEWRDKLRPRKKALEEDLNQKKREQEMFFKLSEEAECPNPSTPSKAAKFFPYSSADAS

[31] = tested on: Leucine-rich repeat serine/threonine-protein kinase 2 (Homo sapiens), Q5S007 [G2019S]; details: Compound concentration 1000.0 nM
[32] = tested on: Phosphatidylinositol 4,5-bisphosphate 3-kinase catalytic subunit alpha isoform (Homo sapiens), P42336 [C420R]; details: Compound concentration 1000.0 nM
Chain of Phosphatidylinositol 4,5-bisphosphate 3-kinase catalytic subunit alpha isoform (Homo sapiens), P42336 [C420R] (P42336 whole entry C420R, canonical isoform): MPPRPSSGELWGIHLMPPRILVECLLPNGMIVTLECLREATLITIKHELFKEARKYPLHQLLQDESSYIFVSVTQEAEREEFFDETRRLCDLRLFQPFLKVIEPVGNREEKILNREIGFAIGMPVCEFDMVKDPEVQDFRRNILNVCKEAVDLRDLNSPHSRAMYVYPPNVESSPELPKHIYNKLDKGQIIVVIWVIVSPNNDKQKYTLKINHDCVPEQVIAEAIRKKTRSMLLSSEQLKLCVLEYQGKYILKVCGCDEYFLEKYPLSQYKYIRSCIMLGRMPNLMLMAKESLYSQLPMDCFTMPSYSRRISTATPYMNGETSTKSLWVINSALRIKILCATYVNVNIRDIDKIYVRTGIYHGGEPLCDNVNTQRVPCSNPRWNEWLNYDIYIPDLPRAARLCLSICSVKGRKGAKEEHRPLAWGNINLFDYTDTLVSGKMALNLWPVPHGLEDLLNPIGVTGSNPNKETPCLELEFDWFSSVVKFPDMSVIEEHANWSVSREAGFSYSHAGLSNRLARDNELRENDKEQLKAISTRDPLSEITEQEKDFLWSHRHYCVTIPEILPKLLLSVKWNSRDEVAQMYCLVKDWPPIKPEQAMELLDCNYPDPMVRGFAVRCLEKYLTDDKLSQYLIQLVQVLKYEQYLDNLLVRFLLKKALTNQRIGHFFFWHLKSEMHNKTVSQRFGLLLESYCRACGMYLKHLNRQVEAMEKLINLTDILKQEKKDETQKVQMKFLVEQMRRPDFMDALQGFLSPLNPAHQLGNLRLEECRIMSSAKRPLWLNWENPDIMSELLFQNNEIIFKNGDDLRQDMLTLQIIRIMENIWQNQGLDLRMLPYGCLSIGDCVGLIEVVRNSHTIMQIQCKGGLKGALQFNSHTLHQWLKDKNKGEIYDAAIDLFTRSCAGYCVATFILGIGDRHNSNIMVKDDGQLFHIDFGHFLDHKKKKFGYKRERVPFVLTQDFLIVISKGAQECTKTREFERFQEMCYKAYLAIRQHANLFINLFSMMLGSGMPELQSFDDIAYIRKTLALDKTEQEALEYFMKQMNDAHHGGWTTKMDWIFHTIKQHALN

[33] = molecular target: GABA-A receptor; anion channel (Rattus norvegicus) (UniProt O09028+P15431+P18506+P18508+P19969+P20236+P23574+P23576+P28471+P28473+P30191+P62813+P63079+P63138+Q91ZM7+Q9ES14); details: Compound concentration 10.0 uM
[34] = molecular target: Receptor-interacting serine/threonine-protein kinase 4 (Homo sapiens) (UniProt P57078); details: Compound concentration 1000.0 nM
[35] = tested on: Receptor-type tyrosine-protein kinase FLT3 (Homo sapiens), P36888 [R834Q]; details: Compound concentration 1000.0 nM
[36] = tested on: Tyrosine-protein kinase ABL1 (Homo sapiens), P00519 [F317L]; details: Compound concentration 1000.0 nM

| Structure (SMILES) | residual activity [1] [%] | residual activity [2] [%] | residual activity [3] [%] | residual activity [4] [%] | residual activity [5] [%] | residual activity [6] [%] | residual activity [7] [%] | residual activity [8] [%] | residual activity [9] [%] | residual activity [10] [%] | residual activity [11] [%] | residual activity [12] [%] | residual activity [13] [%] | residual activity [14] [%] | residual activity [15] [%] | inhibition [16] [%] | residual activity [17] [%] | residual activity [18] [%] | residual activity [19] [%] | inhibition [20] [%] | also measured |
| --- | --- | --- | --- | --- | --- | --- | --- | --- | --- | --- | --- | --- | --- | --- | --- | --- | --- | --- | --- | --- | --- |
| CNC(=O)Nc1ccc2c(c1)[C@@]1(CC2)OC(=O)N(CC(=O)N(Cc2ccc(F)cc2)[C@@H](C)C(F)(F)F)C1=O [A-486] | 88 | 77 | 100 | 100 | 73 | 97 | 74 | 59 | 100 | 60 | 100 | 86 | 100 | 79 | 100 | -7 | 41 | 100 | 100 | 4 | residual activity [21]: 77%; inhibition ([22]; filed as antagonist, Compound concentration 10.0 uM): 2%; residual activity [23]: 100%; residual activity [24]: 81%; inhibition [25]: -3%; residual activity [26]: 100%; residual activity [27]: 89%; residual activity [28]: 100%; residual activity [29]: 100%; residual activity [30]: 92%; residual activity [31]: 100%; residual activity [32]: 80%; inhibition [33]: 9.54%; residual activity [34]: 52%; residual activity [35]: 96%; residual activity [36]: 66% |
| CNC(=O)Nc1ccc2c(c1)CC[C@@]21OC(=O)N(CC(=O)N(Cc2ccc(F)cc2)[C@@H](C)C(F)(F)F)C1=O [A-485] | 71 | 66 | 84 | 100 | 82 | 94 | 97 | 60 | 73 | 63 | 100 | 78 | 94 | 93 | 90 | -2 | 81 | 79 | 100 | 67 | residual activity [21]: 91%; inhibition ([22]; filed as antagonist; Compound concentration 10.0 uM): 4%; residual activity [23]: 100%; residual activity [24]: 72%; inhibition [25]: 13%; residual activity [26]: 77%; residual activity [27]: 98%; residual activity [28]: 92%; residual activity [29]: 100%; residual activity [30]: 100%; residual activity [31]: 100%; residual activity [32]: 80%; inhibition [33]: 8.97%; residual activity [34]: 56%; residual activity [35]: 92%; residual activity [36]: 64% |
